Values joined by “and” are separate entries in the source; they are usually repeats but may differ in a detail not shown here. Equal values may be shown once.

The target in the experiment is SARS-CoV-2_WT Mpro (Severe acute respiratory syndrome coronavirus 2, UniProt P0DTD1). As to the kind of experiment: biochemical. The following applies: 25 nM SARS-2 Mpro, 25 μM substrate, 30 min pre-incubation.

Regarding `Oc1ccc(-c2c3oc4cc(O)ccc4c3nc3c2c(O)nn3C2CCCCCC2)cc1` [ID18, Oc1ccc(-c2c3oc4cc(O)ccc4c3nc3c2c(O)nn3C2CCCCCC2)cc1], the IC50 (commonly the concentration that gives 50% inhibition) is below 100 µM.
`COc1cc(-c2c3oc4cc(O)ccc4c3nc3c2c(O)nn3C2CCCCC2)cc(O)c1O` [ID32, COc1cc(-c2c3oc4cc(O)ccc4c3nc3c2c(O)nn3C2CCCCC2)cc(O)c1O] yielded an IC50 below 100 µM.
For the molecule `COc1cc(-c2c3oc4cc(O)ccc4c3nc3c2c(O)nn3C2CCCCCCC2)cc(O)c1O` [ID41, COc1cc(-c2c3oc4cc(O)ccc4c3nc3c2c(O)nn3C2CCCCCCC2)cc(O)c1O], the IC50 is below 100 µM.
As to `Oc1ccc(-c2c3oc4c(O)c(O)ccc4c3nc3c2c(O)nn3C2CCCCC2)cc1Cl` [ID35, Oc1ccc(-c2c3oc4c(O)c(O)ccc4c3nc3c2c(O)nn3C2CCCCC2)cc1Cl], the IC50 was < 100 µM and 59.4 µM.
As for `Oc1ccc2c(c1)oc1c(-c3ccc(O)c(O)c3)c3c(O)nn(C4CCCCC4)c3nc12` [ID11, Oc1ccc2c(c1)oc1c(-c3ccc(O)c(O)c3)c3c(O)nn(C4CCCCC4)c3nc12], the IC50 is < 100 µM and 54.4 µM.
In turn, `Oc1ccc(-c2c3oc4c(O)c(O)ccc4c3nc3c2c(O)nn3C2CCCCCC2)cc1O` [ID14, Oc1ccc(-c2c3oc4c(O)c(O)ccc4c3nc3c2c(O)nn3C2CCCCCC2)cc1O] had a 50% inhibitory concentration (IC50) below 100 µM.
Next, `Cc1c(O)ccc2c1oc1c(-c3ccc(O)c(O)c3)c3c(O)nn(C4CCCCC4)c3nc12` [ID20, Cc1c(O)ccc2c1oc1c(-c3ccc(O)c(O)c3)c3c(O)nn(C4CCCCC4)c3nc12]: below 100 µM.

The values above are taken from paper PMC11662536, “Targeting SARS-CoV-2 main protease: a comprehensive approach using advanced virtual screening, molecular dynamics, and in vitro validation” (Virology Journal, 2024).
